Test results taken from the supplement of paper PMC12463676, “Small-molecule dissolution of stress granules by redox modulation benefits ALS models” (Nature Chemical Biology, 2025).

Tests used:
[1] = compound: O=[As]([O-])(O)O.[K+] [potassium arsenate]; assay: thermal stability z-score vs DMSO; higher = more thermally stabilized by treatment; conditions: HeLa; arsenate concentration 1 mM
Protocol: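 Cellular thermal proteome profiling in HeLa cells treated with 1 mM arsenate for 1 h (DMSO pretreatment), heated to ten temperatures (37-66.3 °C). Soluble protein was quantified by TMT mass spectrometry relative to DMSO controls; the thermal stability score was transformed to a z-score; mean of n = 3 experiments.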

[2] = compound: NC(=O)CCCCC1CCSS1 [lipoamide]; assay: as above; conditions: HeLa, lipoamide concentration 100 µM
Protocol: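 Cellular thermal proteome profiling in HeLa cells. Cells were treated with 100 µM lipoamide for 1 h, with or without 1 mM arsenate for a further 1 h, then heated to ten temperatures (37-66.3 °C), and soluble protein was quantified by TMT mass spectrometry relative to 0.1% DMSO controls. The thermal stability score (sum of log2 fold changes minus the abundance score) was transformed to a z-score; mean of n = 3 experiments.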

[3] = arsenate co-treatment: 1 mM arsenate 1 h
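Further: each temperature applied for 3 min, abundance score taken as mean log2 fold change at the two lowest temperatures, z-score obtained by mean subtraction and division by SD.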

UniProt O00429, sequence (O00429 whole entry): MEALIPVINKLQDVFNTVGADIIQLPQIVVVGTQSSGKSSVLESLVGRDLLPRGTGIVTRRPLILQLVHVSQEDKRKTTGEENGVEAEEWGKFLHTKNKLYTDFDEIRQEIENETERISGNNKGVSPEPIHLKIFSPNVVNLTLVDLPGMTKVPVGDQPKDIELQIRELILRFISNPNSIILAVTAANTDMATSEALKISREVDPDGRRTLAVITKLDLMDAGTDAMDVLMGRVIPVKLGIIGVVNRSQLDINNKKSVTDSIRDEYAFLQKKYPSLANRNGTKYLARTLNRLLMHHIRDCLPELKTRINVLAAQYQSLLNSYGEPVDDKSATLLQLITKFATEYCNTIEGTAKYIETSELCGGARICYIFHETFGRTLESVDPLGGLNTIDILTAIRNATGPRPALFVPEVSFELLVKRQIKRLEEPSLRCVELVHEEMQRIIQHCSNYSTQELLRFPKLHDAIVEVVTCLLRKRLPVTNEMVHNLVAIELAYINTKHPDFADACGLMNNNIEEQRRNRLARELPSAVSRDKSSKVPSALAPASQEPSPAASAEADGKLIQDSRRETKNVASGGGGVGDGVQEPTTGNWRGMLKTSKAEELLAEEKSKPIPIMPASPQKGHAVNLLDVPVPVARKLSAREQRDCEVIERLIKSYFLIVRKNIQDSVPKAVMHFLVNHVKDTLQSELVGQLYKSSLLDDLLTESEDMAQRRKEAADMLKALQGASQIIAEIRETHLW
UniProt Q8N9N8, sequence (Q8N9N8 whole entry): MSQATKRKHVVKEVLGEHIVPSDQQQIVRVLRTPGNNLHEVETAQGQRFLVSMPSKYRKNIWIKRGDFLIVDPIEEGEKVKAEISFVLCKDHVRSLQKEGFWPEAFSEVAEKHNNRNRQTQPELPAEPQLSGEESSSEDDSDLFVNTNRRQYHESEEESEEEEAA
UniProt P18859, sequence (P18859 whole entry): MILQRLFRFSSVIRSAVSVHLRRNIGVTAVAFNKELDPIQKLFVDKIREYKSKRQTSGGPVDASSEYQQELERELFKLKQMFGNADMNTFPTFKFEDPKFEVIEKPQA
UniProt Q96PZ0, sequence (Q96PZ0 whole entry): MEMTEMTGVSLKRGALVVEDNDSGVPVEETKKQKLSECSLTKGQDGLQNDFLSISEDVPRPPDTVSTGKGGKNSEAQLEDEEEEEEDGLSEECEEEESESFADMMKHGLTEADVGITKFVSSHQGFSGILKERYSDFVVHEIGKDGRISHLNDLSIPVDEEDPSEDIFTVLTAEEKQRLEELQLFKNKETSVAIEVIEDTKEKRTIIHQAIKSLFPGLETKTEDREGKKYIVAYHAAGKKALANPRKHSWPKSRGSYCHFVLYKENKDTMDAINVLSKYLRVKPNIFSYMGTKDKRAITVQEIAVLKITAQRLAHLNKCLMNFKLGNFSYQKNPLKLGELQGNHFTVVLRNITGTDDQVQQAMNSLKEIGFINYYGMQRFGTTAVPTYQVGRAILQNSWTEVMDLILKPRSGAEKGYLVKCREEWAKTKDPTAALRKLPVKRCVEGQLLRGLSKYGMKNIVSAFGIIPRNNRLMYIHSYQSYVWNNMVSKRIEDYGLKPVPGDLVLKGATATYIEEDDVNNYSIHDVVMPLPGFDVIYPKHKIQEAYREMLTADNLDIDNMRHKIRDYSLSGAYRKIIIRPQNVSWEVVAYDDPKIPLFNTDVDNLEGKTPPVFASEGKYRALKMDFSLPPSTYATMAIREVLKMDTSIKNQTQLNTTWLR
UniProt O94762, sequence (O94762 whole entry): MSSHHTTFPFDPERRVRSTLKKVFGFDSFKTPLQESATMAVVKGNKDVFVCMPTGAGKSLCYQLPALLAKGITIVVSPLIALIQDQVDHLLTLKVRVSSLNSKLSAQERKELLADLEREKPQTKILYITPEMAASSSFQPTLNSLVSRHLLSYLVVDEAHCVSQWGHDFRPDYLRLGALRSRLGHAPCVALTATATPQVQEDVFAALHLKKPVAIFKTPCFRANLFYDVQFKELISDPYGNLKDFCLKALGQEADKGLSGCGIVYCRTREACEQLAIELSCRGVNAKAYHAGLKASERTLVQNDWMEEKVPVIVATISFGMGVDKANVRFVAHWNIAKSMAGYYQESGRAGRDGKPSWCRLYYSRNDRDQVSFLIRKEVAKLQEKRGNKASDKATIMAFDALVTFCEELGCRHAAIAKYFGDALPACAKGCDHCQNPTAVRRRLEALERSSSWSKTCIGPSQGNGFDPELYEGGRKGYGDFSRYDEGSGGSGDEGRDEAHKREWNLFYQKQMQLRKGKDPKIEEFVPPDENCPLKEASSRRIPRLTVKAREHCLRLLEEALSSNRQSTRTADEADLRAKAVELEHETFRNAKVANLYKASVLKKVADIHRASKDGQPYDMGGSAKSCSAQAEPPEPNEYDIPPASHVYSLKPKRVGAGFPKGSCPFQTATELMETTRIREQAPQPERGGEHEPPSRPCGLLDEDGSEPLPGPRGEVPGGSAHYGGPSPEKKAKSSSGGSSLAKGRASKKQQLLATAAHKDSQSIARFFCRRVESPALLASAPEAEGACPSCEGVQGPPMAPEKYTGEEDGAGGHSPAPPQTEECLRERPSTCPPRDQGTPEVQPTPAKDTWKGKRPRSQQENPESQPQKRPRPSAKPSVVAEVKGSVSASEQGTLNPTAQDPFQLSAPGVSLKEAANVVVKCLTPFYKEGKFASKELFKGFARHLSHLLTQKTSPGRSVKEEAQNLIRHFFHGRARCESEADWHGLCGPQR
UniProt Q684P5, sequence (Q684P5 whole entry): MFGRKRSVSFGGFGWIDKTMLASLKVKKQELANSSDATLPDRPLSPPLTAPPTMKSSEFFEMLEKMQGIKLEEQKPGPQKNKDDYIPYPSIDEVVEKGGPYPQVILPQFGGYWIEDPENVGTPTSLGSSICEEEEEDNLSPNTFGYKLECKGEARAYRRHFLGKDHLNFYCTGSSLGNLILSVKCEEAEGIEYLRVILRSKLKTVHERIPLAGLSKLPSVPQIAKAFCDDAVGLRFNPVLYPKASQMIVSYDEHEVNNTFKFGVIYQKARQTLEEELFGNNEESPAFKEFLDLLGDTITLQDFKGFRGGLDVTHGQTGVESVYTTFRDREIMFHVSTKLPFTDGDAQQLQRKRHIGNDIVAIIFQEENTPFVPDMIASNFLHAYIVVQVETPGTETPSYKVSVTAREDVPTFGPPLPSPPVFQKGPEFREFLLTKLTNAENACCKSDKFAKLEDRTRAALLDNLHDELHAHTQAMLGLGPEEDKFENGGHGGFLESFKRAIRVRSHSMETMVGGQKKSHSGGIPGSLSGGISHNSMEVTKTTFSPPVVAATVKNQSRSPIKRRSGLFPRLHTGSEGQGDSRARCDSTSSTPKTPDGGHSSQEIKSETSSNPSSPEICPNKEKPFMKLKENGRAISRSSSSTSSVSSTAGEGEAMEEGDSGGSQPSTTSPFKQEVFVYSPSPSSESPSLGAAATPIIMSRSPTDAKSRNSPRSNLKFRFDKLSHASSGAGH
UniProt Q969H8, sequence (Q969H8 whole entry): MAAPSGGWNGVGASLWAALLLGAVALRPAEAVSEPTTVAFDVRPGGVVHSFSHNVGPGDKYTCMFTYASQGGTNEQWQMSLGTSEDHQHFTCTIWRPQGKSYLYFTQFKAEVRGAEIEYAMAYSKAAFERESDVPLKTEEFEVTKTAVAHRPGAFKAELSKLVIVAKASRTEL
UniProt Q8NBJ7, sequence (Q8NBJ7 whole entry): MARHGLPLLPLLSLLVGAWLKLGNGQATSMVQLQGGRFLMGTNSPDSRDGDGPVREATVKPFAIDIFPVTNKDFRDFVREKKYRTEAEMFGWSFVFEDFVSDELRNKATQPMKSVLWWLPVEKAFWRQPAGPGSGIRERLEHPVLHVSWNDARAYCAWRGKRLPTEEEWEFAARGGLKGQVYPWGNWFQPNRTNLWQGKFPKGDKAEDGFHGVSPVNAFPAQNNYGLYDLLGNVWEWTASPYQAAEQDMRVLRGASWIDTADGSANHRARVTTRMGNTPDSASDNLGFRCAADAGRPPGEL
UniProt P08243, sequence (P08243 whole entry): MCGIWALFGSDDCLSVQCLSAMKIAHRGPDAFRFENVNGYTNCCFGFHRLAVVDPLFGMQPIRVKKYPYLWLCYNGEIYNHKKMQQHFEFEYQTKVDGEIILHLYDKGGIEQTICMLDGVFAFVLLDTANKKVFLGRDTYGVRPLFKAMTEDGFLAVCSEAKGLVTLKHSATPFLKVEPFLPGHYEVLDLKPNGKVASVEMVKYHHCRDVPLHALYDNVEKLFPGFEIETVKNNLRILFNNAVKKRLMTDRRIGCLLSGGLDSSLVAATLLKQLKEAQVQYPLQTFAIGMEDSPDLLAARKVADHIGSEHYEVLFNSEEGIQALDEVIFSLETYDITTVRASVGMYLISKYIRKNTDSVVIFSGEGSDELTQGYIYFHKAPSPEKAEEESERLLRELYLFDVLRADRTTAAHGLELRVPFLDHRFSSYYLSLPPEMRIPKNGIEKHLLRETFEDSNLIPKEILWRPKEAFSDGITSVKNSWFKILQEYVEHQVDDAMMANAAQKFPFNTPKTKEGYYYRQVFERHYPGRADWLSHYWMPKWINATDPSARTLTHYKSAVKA
UniProt Q06323, sequence (Q06323 whole entry): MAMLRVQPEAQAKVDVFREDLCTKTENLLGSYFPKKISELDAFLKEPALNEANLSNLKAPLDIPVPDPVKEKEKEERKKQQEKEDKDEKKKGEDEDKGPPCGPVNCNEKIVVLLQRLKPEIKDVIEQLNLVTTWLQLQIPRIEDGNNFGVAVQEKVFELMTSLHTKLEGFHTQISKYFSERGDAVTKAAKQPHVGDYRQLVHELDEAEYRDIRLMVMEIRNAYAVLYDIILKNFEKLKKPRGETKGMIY
UniProt O75934, sequence (O75934 whole entry): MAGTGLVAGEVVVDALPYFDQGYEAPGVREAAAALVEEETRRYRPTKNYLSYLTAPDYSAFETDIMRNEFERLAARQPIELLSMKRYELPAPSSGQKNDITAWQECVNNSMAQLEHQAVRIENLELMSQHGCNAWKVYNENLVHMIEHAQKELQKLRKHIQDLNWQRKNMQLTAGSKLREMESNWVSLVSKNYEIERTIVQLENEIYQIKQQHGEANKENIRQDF

Row | Target | thermal stability z-score [1] | thermal stability z-score [2, 3] | thermal stability z-score ([2]; arsenate co-treatment: none)
1 | FNBP1 (UniProt Q96RU3) | 0.336 | 0.146 | 0.0859
2 | RAP1GAP2 (UniProt Q684P5) | 0.124 | 1.12 | 0.923
3 | MAP2K6 (UniProt P52564) | -0.021 | -0.0718 | 0.061
4 | LONP1 (UniProt P36776) | -0.763 | -0.482 | -0.277
5 | PUS7 (UniProt Q96PZ0) | 0.651 | -0.447 | 0.26
6 | JMJD4 (UniProt Q9H9V9) | 0.0203 | 0.073 | 0.027
7 | DDX19A (UniProt Q9NUU7) | 0.954 | 0.865 | 1.2
8 | ASNS (UniProt P08243) | -0.303 | 1.69 | 0.131
9 | SNAPIN (UniProt O95295) | 0.267 | 0.164 | 0.647
10 | SUMF2 (UniProt Q8NBJ7) | 0.544 | -3.47 | -2.99
11 | RAB11FIP5 (UniProt Q9BXF6) | 0.895 | 0.135 | -1.43
12 | NFIA (UniProt Q12857) | -0.647 | -1.05 | -1.1
13 | RPS11 (UniProt P62280) | -1.11 | 0.621 | 0.352
14 | MTOR (UniProt P42345) | 0.0121 | 0.00431 | 0.137
15 | EIF1AD (UniProt Q8N9N8) | 1.09 | 0.433 | 0.98
16 | MARC2 (UniProt Q969Z3) | 0.168 | 0.235 | 0.311
17 | FOXK1 (UniProt P85037) | 1.86 | 0.345 | -0.0499
18 | BCAS2 (UniProt O75934) | 0.558 | 0.913 | 0.747
19 | NEK7 (UniProt Q8TDX7) | -0.53 | -0.813 | -0.453
20 | NCKAP1 (UniProt Q9Y2A7) | -0.938 | 0.0716 | 0.602
21 | AIDA (UniProt Q96BJ3) | -0.0785 | -0.00864 | 0.00569
22 | SDHAF4 (UniProt Q5VUM1) | -1.53 | 0.0401 | -0.258
23 | PSME1 (UniProt Q06323) | 0.405 | -0.372 | -0.217
24 | RECQL5 (UniProt O94762) | -0.222 | -0.0312 | 0.0721
25 | ATP5J (UniProt P18859) | 1.53 | 2.44 | 1.93
26 | PYGL (UniProt P06737) | -0.513 | 0.968 | 0.345
27 | MIA3 (UniProt Q5JRA6) | 1.39 | -3.32 | -2.72
28 | DNM1L (UniProt O00429) | 0.237 | -0.508 | 0.234
29 | MYDGF (UniProt Q969H8) | -0.0349 | -1.32 | -1.06
30 | OPTN (UniProt Q96CV9) | 1.01 | -0.94 | -0.477
